The record followed here is ChEMBL document CHEMBL3244076, “N,N'-(Phenylene)dioxamic acids and their esters as antiallergy agents” (1978).

In general, inhibition in vivo refers to the share of the control response that was lost under treatment. In general, ED50 refers to the midpoint of the dose-response relation.

Common to all, as to assay type: functional
Assay [1] deals with Rattus norvegicus. Briefly: Antiallergic activity in anti-egg albumin homocytotropic antibody-sensitized Sprague-Dawley rat assessed as inhibition of passive cutaneous anaphylaxis reaction at 1 mg/kg, iv administered at the time of antigen egg albumin challenge.
For assay [2], the system named is Rattus norvegicus. Briefly: Antiallergic activity in anti-egg albumin homocytotropic antibody-sensitized Sprague-Dawley rat assessed as inhibition of passive cutaneous anaphylaxis reaction at 0.1 mg/kg, iv administered at the time of antigen egg albumin challenge.
Assay [3] concerns Rattus norvegicus. Briefly: Antiallergic activity in anti-egg albumin homocytotropic antibody-sensitized Sprague-Dawley rat assessed as inhibition of passive cutaneous anaphylaxis reaction at 0.001 mg/kg, iv administered at the time of antigen egg albumin challenge.
The test system of assay [4] is Rattus norvegicus. Briefly: Antiallergic activity in anti-egg albumin homocytotropic antibody-sensitized Sprague-Dawley rat assessed as inhibition of passive cutaneous anaphylaxis reaction at 0.01 mg/kg, iv administered at the time of antigen egg albumin challenge.
Assay [5] relates to Rattus norvegicus. Briefly: Antiallergic activity in iv dosed anti-egg albumin homocytotropic antibody-sensitized Sprague-Dawley rat assessed as inhibition of passive cutaneous anaphylaxis reaction administered at the time of antigen egg albumin challenge.
In assay [6] the test system is Rattus norvegicus. Briefly: Antiallergic activity in anti-egg albumin homocytotropic antibody-sensitized Sprague-Dawley rat assessed as inhibition of passive cutaneous anaphylaxis reaction at 10 mg/kg, po administered 60 mins prior to antigen egg albumin challenge.
Assay [7] relates to Rattus norvegicus. Briefly: Antiallergic activity in anti-egg albumin homocytotropic antibody-sensitized Sprague-Dawley rat assessed as inhibition of passive cutaneous anaphylaxis reaction at 10 mg/kg, po administered 5 mins prior to antigen egg albumin challenge.
Assay [8] concerns Rattus norvegicus. Briefly: Antiallergic activity in anti-egg albumin homocytotropic antibody-sensitized Sprague-Dawley rat assessed as inhibition of passive cutaneous anaphylaxis reaction at 10 mg/kg, po administered 20 mins prior to antigen egg albumin challenge.
In assay [9] the test system is Rattus norvegicus. Briefly: Antiallergic activity in anti-egg albumin homocytotropic antibody-sensitized Sprague-Dawley rat assessed as time of peak action for inhibition of passive cutaneous anaphylaxis reaction at 50 mg/kg, po administered prior to antigen egg albumin challenge.
The subject of assay [10] is Rattus norvegicus. Briefly: Antiallergic activity in anti-egg albumin homocytotropic antibody-sensitized Sprague-Dawley rat assessed as inhibition of passive cutaneous anaphylaxis reaction at 50 mg/kg, po administered prior to antigen egg albumin challenge.
For assay [11], the system named is Rattus norvegicus. Briefly: Antiallergic activity in anti-egg albumin homocytotropic antibody-sensitized Sprague-Dawley rat assessed as inhibition of passive cutaneous anaphylaxis reaction at 50 mg/kg, po administered 120 mins prior to antigen egg albumin challenge.
Assay [12] relates to Rattus norvegicus. Briefly: Antiallergic activity in po dosed anti-egg albumin homocytotropic antibody-sensitized Sprague-Dawley rat assessed as lowest concentration required for >20% inhibition of passive cutaneous anaphylaxis reaction administered prior to antigen egg albumin challenge.
The subject of assay [13] is Rattus norvegicus. Briefly: Antiallergic activity in anti-egg albumin homocytotropic antibody-sensitized Sprague-Dawley rat assessed as inhibition of passive cutaneous anaphylaxis reaction at 50 mg/kg, po administered 5 mins prior to antigen egg albumin challenge.
The subject of assay [14] is Rattus norvegicus. Briefly: Antiallergic activity in anti-egg albumin homocytotropic antibody-sensitized Sprague-Dawley rat assessed as inhibition of passive cutaneous anaphylaxis reaction at 50 mg/kg, po administered 60 mins prior to antigen egg albumin challenge.
In assay [15] the test system is Rattus norvegicus. Briefly: Antiallergic activity in anti-egg albumin homocytotropic antibody-sensitized Sprague-Dawley rat assessed as inhibition of passive cutaneous anaphylaxis reaction at 50 mg/kg, po administered 20 mins prior to antigen egg albumin challenge.
Assay [16] relates to Rattus norvegicus. Briefly: Ratio of disodium cromoglycate ED50 to compound ED50 for antiallergic activity in iv dosed anti-egg albumin homocytotropic antibody-sensitized Sprague-Dawley rat by passive cutaneous anaphylaxis reaction analysis.

The structures appear in SMILES notation.

Consider `N#Cc1cc(NC(=O)C(=O)O)cc(NC(=O)C(=O)O)c1Cl`, for which the inhibition in vivo at 1 mg/kg with Rattus norvegicus [1] is 100%. Moreover, in the assay on Rattus norvegicus [2], the inhibition in vivo at 0.1 mg/kg came to 100%. Besides, the inhibition in vivo at 0.001 mg/kg in the assay on Rattus norvegicus [3] came to 0%. The inhibition in vivo at 0.01 mg/kg with Rattus norvegicus [4] turned out to be 20%.
For `Cc1cc(NC(=O)C(=O)O)c(Cl)c(NC(=O)C(=O)O)c1`, the inhibition in vivo at 1 mg/kg with Rattus norvegicus [1] was found to be 100%. The inhibition in vivo at 0.1 mg/kg with Rattus norvegicus [2] turned out to be 91%. The inhibition in vivo at 0.001 mg/kg in the assay with Rattus norvegicus [3] worked out at 2%. The inhibition in vivo at 0.01 mg/kg in the assay on Rattus norvegicus [4] came to 20%.
As for `O=C([O-])c1cc(=O)c2c(OCC(O)COc3cccc4oc(C(=O)[O-])cc(=O)c34)cccc2o1.[Na+].[Na+]` [CROMOLYN SODIUM], the ED50 with Rattus norvegicus [5] came to 2.5 mg/kg.
For `CCOC(=O)C(=O)Nc1ccc(C#N)c(NC(=O)C(=O)OCC)c1`, the inhibition in vivo at 10 mg/kg in the assay on Rattus norvegicus [6] was determined as 19%; with Rattus norvegicus [7], 7%; with Rattus norvegicus [8] it was 19%.
Take `CCCCCCOC(=O)C(=O)Nc1cc(C#N)cc(NC(=O)C(=O)OCCCCCC)c1Cl`: the Time in the assay on Rattus norvegicus [9] stood at 5 min. For the same compound, in the assay with Rattus norvegicus [10], the inhibition in vivo at 50 mg/kg turned out to be 51%.
The matching figures for `CCCCOC(=O)C(=O)Nc1cc(C#N)cc(NC(=O)C(=O)OCCCC)c1Cl`: 5 min and 100%.
Take `CCOC(=O)C(=O)Nc1cc(C#N)cc(NC(=O)C(=O)OCC)c1`: the results for the inhibition in vivo at 10 mg/kg in the assay with Rattus norvegicus [6], with Rattus norvegicus [7] and in the assay with Rattus norvegicus [8] were 0%, 95% and 25%, respectively.
Turning to `CCOC(=O)C(=O)Nc1cccc(NC(=O)C(=O)OCC)c1`, the inhibition in vivo at 50 mg/kg with Rattus norvegicus [11] is 29%; in the assay with Rattus norvegicus [13], 3%; with Rattus norvegicus [14], 14%; with Rattus norvegicus [15], 94%. Further, the LED with Rattus norvegicus [12] was 1 mg/kg. Also, the Time in the assay with Rattus norvegicus [9] came to 20 min.
As to `N#Cc1cc(NC(=O)C(=O)OC23CC4CC(CC(C4)C2)C3)c(Cl)c(NC(=O)C(=O)OC23CC4CC(CC(C4)C2)C3)c1`, the Time in the assay with Rattus norvegicus [9] is 60 min. In addition, the inhibition in vivo at 50 mg/kg in the assay on Rattus norvegicus [10] is 50%.
For `CCOC(=O)C(=O)Nc1cc(C#N)cc(NC(=O)C(=O)OCC)c1Cl` [LODOXAMIDE ETHYL], the LED in the assay with Rattus norvegicus [12] was determined as 0.1 mg/kg. In addition, the Time with Rattus norvegicus [9] turned out to be 5 min. The inhibition in vivo at 50 mg/kg in the assay on Rattus norvegicus [13] came to 100%; in the assay on Rattus norvegicus [14], 0%; in the assay with Rattus norvegicus [15], 31%.
Take `O=C(O)C(=O)Nc1cc(C(F)(F)F)cc(NC(=O)C(=O)O)c1Cl`: the inhibition in vivo at 0.1 mg/kg with Rattus norvegicus [2] came to 100%. For the same compound, in the assay on Rattus norvegicus [3], the inhibition in vivo at 0.001 mg/kg stood at 0%. Further, the inhibition in vivo at 0.01 mg/kg in the assay with Rattus norvegicus [4] turned out to be 90%.
Take `N#Cc1cc(NC(=O)C(=O)O)c(Cl)c(NC(=O)C(=O)O)c1` [LODOXAMIDE]: in the assay with Rattus norvegicus [3], the inhibition in vivo at 0.001 mg/kg stood at 50%. In addition, the inhibition in vivo at 0.01 mg/kg in the assay with Rattus norvegicus [4] worked out at 94%. Besides, the “Ratio ED50” value in the assay on Rattus norvegicus [16] was determined as 2500.
